Our source for the IC50, Activity and inhibition values is ChEMBL document CHEMBL5385848, “Discovery of novel hydroxyamidine based indoleamine 2,3-dioxygenase 1 (IDO1) and thioredoxin reductase 1 (TrxR1) dual inhibitors” (Eur J Med Chem, 2023).

pIC50: −log10 of the molar value. The source made the active and inactive calls. The rule behind the calls is not given here.

The target of data set [1] is T1, Indoleamine 2,3-dioxygenase 2 (Homo sapiens, UniProt Q6ZQW0).
T1 sequence (Q6ZQW0 whole entry): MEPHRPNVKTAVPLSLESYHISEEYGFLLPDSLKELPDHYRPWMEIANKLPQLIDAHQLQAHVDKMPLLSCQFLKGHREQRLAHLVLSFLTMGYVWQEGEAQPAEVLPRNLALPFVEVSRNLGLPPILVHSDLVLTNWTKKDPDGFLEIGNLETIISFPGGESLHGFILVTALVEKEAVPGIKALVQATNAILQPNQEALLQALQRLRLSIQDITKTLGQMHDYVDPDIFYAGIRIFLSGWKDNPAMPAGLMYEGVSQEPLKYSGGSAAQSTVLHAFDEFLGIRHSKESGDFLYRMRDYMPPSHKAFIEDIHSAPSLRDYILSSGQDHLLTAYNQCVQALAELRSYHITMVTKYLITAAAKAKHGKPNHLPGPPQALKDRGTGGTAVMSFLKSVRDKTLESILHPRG
Briefly: Inhibition of IDO2 (unknown origin) using D-Trp as substrate incubated for 1 hr.

Data set [2] is described as follows: Toxicity in athymic nude BALB/c mouse assessed as weight gain at 60 mg/kg, ig administered daily for 28 days and measured every 4 days. The data set is classed as organism-based. The note with it: in vivo, po, 672 h, time 28 day.
Data set [3] can be described thus: Cytotoxicity against mouse CT26 cells incubated for 48 hrs by CCK-8 assay. The data set is classed as toxicity, cell-based. Background: Formazan colour is commonly taken as a measure of viable cells.
The nature of data set [4]: Cytotoxicity against human HCT-116 cells incubated for 48 hrs by CCK-8 assay. The data set is classed as toxicity, cell-based.
Data set [5] in a line: Cytotoxicity against human HeLa cells incubated for 48 hrs by CCK-8 assay. The data set is classed as toxicity, cell-based.
The target in data set [6] is Indoleamine 2,3-dioxygenase 1 (Homo sapiens, UniProt P14902). Briefly: Inhibition of recombinant human IDO1 using L-Trp as substrate incubated for 1 hr.
The target of data set [7] is T2, Thioredoxin reductase 1, cytoplasmic (Rattus norvegicus, UniProt O89049).
T2 sequence (O89049 whole entry): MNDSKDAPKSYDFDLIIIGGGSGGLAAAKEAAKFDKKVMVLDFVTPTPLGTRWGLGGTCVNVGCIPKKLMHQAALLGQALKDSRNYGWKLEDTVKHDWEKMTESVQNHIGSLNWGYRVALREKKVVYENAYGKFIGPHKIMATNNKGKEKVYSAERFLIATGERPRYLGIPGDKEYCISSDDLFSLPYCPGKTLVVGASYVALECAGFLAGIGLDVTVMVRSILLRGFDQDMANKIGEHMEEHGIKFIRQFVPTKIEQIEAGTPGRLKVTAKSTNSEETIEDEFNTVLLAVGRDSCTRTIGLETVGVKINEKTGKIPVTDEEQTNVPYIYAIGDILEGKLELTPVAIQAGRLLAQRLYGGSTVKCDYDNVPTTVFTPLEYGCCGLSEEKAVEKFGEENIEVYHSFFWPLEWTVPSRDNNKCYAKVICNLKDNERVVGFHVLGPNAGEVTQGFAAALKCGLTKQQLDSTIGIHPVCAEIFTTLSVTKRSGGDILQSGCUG
The data set is described as follows: Inhibition of recombinant rat TrxR1 incubated for 1 hr in presence of NADPH by microplate reader analysis.

The subject of the next data set is HCT-116. The data set is described as follows: Antiproliferative activity against human HCT-116 cells assessed as cell growth inhibition incubated for 48 hrs by CCK-8 assay. The data set is classed as functional, cell-based. The note with it: HCT-116, 48 h.
The target of data set [8] is Indoleamine 2,3-dioxygenase 1 (Mus musculus) (UniProt P28776). Briefly: In vivo inhibition of IDO1 in C57BL/6 mouse assessed as reduction in plasma Kyn level at 60 mg/kg, po administered once daily by LC-MS/MS analysis. It counts as functional, organism-based.
Data set [9] relates to CT26. Briefly: Antitumor activity against mouse CT26 cells implanted in […] BALB/c mouse assessed as increase in CD8 T lymphocytes at 60 mg/kg, ig administered daily for 28 days and measured every 4 days. It counts as functional, organism-based. The settings on record: time 28.0 day.
In data set [10] the target is T3, Thioredoxin reductase 1, cytoplasmic (Mus musculus) (UniProt Q9JMH6).
T3 sequence (whole entry): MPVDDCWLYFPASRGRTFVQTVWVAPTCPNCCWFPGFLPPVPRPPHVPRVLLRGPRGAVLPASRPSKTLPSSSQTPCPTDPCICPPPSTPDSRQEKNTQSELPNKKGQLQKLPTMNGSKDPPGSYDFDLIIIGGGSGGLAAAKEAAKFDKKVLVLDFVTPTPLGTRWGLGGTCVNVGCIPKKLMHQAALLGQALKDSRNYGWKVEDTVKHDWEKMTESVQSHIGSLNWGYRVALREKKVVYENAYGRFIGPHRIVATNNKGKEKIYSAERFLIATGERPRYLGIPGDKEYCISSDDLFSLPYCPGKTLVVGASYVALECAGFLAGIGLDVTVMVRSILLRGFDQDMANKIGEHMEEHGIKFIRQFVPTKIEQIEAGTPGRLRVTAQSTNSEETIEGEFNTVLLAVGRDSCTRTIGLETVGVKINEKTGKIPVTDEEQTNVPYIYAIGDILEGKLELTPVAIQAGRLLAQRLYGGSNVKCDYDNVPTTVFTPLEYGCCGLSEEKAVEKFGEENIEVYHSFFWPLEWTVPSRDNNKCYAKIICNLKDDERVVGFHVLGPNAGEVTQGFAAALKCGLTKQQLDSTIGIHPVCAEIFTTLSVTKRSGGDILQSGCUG
Briefly: Inhibition of TrxR1 in mouse CT26 cells incubated for 24 hrs. It counts as cell-based.

Data set [11] deals with CT26. Briefly: Antitumor activity against mouse CT26 cells implanted in athymic nude BALB/c mouse assessed as reduction in proliferative nTreg lymphocytes at 60 mg/kg, ig administered daily for 28 days and measured every 4 days by immunofluorescence analysis. The settings on record: time 28.0 day. The data set is classed as functional, organism-based.
The target of data set [12] is T4, Thioredoxin reductase 1, cytoplasmic (Homo sapiens) (UniProt Q16881).
T4 sequence (whole entry): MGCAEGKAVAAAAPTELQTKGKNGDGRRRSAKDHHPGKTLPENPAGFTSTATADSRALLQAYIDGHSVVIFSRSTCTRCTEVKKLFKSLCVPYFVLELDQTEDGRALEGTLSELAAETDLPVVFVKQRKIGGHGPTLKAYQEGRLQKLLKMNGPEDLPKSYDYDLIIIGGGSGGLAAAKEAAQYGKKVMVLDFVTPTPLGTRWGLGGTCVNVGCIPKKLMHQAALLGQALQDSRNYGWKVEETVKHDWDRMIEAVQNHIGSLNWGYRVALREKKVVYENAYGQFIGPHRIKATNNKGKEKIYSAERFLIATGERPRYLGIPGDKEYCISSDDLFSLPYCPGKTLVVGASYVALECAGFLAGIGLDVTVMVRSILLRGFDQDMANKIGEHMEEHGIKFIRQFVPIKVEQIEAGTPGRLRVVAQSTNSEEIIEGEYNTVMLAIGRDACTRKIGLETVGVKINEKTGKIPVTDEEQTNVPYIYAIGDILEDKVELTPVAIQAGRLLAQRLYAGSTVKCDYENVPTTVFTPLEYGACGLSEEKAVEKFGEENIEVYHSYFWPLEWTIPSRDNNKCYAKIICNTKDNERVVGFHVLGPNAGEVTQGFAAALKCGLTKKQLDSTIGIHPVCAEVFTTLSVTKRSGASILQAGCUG
The data set is described as follows: Inhibition of TrxR1 in human HCT-116 cells incubated for 24 hrs. It counts as cell-based.

The test system of data set [13] is CT26. The data set is described as follows: Antitumor activity against mouse CT26 cells implanted in athymic nude BALB/c mouse assessed as reduction in CD4+CD25+Foxp3+ lymphocytes at 60 mg/kg, ig administered daily for 28 days and measured every 4 days by immunofluorescence analysis. The data set is classed as functional, organism-based. The settings on record: time 28.0 day.

Data set [14] concerns CT26. The data set is described as follows: Antitumor activity against mouse CT26 cells implanted in […] BALB/c mouse assessed as reduction in nTreg lymphocytes at 60 mg/kg, ig administered daily for 28 days and measured every 4 days by immunofluorescence analysis. The note with it: time 28.0 day. The data set is classed as functional, organism-based.
Data set [15] deals with T4, Thioredoxin reductase 1, cytoplasmic (Homo sapiens). The data set is described as follows: Inhibition of TrxR1 in human HeLa cells incubated for 24 hrs. The data set is classed as cell-based.
The target in data set [16] is Indoleamine 2,3-dioxygenase 1 (Mus musculus) (UniProt P28776). The data set is described as follows: In vivo inhibition of IDO1 in C57BL/6 mouse assessed as reduction in plasma Kyn/Trp ratio at 60 mg/kg, po administered once daily by LC-MS/MS analysis. The data set is classed as functional, organism-based.
Data set [17] relates to CT26. The data set is described as follows: Antitumor activity against mouse CT26 cells implanted in […] BALB/c mouse assessed as increase in CD4 Th lymphocytes at 60 mg/kg, ig administered daily for 28 days and measured every 4 days. The data set is classed as functional, organism-based. The settings on record: time 28.0 day.
Data set [18] has as its target Indoleamine 2,3-dioxygenase 1 (Mus musculus) (UniProt P28776). Briefly: In vivo inhibition of IDO1 in C57BL/6 mouse assessed as increase in plasma Trp level at 60 mg/kg, po administered once daily by LC-MS/MS analysis. It counts as functional, organism-based.

Sequence of Indoleamine 2,3-dioxygenase 1 (Mus musculus) (P28776 whole entry, looked up): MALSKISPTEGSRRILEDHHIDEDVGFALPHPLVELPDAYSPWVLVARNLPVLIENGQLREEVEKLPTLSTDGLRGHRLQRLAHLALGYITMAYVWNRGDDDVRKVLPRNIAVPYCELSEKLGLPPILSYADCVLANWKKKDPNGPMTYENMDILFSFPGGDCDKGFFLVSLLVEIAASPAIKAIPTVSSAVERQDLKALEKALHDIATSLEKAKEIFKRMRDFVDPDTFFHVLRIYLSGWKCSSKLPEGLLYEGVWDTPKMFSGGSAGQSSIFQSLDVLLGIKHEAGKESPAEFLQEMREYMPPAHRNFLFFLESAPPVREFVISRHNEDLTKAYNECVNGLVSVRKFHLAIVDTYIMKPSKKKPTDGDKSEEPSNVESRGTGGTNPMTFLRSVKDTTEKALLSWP
Sequence of Indoleamine 2,3-dioxygenase 1 (P14902 whole entry): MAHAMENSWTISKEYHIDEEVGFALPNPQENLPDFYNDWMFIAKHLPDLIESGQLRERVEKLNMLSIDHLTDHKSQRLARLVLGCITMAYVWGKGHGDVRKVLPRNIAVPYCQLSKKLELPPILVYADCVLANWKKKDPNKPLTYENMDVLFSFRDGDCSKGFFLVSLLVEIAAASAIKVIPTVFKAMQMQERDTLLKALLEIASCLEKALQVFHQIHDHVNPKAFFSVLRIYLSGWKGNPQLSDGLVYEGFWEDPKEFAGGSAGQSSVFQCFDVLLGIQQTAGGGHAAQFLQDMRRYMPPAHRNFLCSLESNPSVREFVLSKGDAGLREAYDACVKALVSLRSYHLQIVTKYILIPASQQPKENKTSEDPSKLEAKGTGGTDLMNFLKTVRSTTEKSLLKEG

For orientation: pIC50 means the negative decadic logarithm of the IC50, by convention in mol/L. In general, IC50 refers to the point on the concentration scale where inhibition reaches its midpoint. Turning to `NS(=O)(=O)NCCNc1nonc1C(=NO)Nc1ccc(F)c(Br)c1` [EPACADOSTAT], the pIC50 in data set [1] was 6.20. In data set [2], the Activity entry is reported as “Toxic”. In addition, the IC50 at 48 h is 1.49 µM in [3], 0.26 µM in [4] and 4.63 µM in data set [5].
`O=C(Cc1ccc(O)cc1)Nc1nnc(CCCNc2nonc2/C(=N\O)NCCc2ccc(Cl)cc2)s1`: the pIC50 was 4.99 in [6], 5.71 in [7] and 5.35 in the data set with HCT-116.
The corresponding values for `O=C(Cc1ccc(O)cc1)Nc1nnc(CCCNc2nonc2/C(=N\O)NCCc2ccc(F)cc2)s1` are 5.36, 4.87 and 5.27.
The corresponding values for `O=C(Cc1cccc(OC(F)(F)F)c1)Nc1nnc(CCCNc2nonc2/C(=N\O)NCCc2ccc(Cl)cc2)s1` are 4.76, 5.12 and 5.42.
On to `O=C(Cc1ccccc1)Nc1nnc(CCCNc2nonc2/C(=N\O)NCCc2ccc(F)cc2)s1`, for which the pIC50 in data set [6] was 4.88; in data set [7], 4.60; in the data set on HCT-116, 5.25.
As to `O=C(Cc1ccc(O)cc1)Nc1nnc(CCCNc2nonc2/C(=N\O)NCCc2ccc(Br)cc2)s1`, the pIC50 was 5.00 in [6], 4.74 in [7] and 5.34 with HCT-116.
The corresponding values for `O=C(Cc1cccc(OC(F)(F)F)c1)Nc1nnc(CCCNc2nonc2/C(=N\O)Nc2ccc(F)c(Br)c2)s1` are 6.92, 5.43 and 5.28.
For `O=C(Cc1ccccc1)Nc1nnc(CCCNc2nonc2/C(=N\O)Nc2ccc(F)c(Br)c2)s1`, the pIC50 is 7.22 in data set [6], 5.43 in data set [7] and 5.22 in the data set on HCT-116.
In the case of `NS(=O)(=O)NCCNc1nonc1/C(=N/O)Nc1ccc(F)c(Br)c1`, the outcome (in [8]; in the data set on CT26 [9]; with CT26 [11]; in the data set with CT26 [13]; in the data set on CT26 [14]; in data set [16]) was Active. Moreover, the result (in the data set on CT26 [17]; in data set [18]) was Active. For the same compound, the inhibition entry in [10], in [12] and in [15] was “inactive” throughout.
Take `O=C(Cc1ccccc1)Nc1nnc(CCCNc2nonc2/C(=N\O)NCCc2ccc(Cl)cc2)s1`: the pIC50 in [6] was 5.10; in [7], 5.19; with HCT-116, 5.33.
In the same order, the values of `O=C(Cc1cccc(OC(F)(F)F)c1)Nc1nnc(CCCNc2nonc2/C(=N\O)NCCc2ccc(Br)cc2)s1` are 5.25, 4.98 and 5.51.
